We go through three compounds from US11131674B2, “Microarray compositions and methods of their use” (ADEPTRIX CORP., priority 2013, dated 2021).

Series [1] has as its system MCF-7 cell line cells. Kind of series: Whole cell MALDI TOF MS imaging of live cell microarray reacted with apoptosis-inducing compounds. The format is cell-based, human. The following applies: MCF-7 cells, 24 hours; etoposide 1 mM, camptothecin 10 μM, andrographolide 100 μM, 500 μM and 1 mM; FIG. 39E. The protocol: The live cell microarray was fabricated as follows: a sterile 12-well silicone gasket was affixed to a top surface of a sterile APEX™ glass microwell plate, as schematically depicted in FIG. 15A and 1×DMEM cell culture medium supplemented with 10% FBS and 1% of Penicillin/Streptomycin was dispensed into each well of the fabricated 12-chamber cell culture device. Several hundred of MCF-7 cell line cells were seeded into each of the 12 wells and the cells were grown to […] density on the microwell plate within 48 hrs using a standard cell culture protocol. The fabricated live cell microarray thus comprised 12 reactive sites defined by the dimensions of the silicone gasket, each reactive site measuring approximately 7.5 mm×7.5 mm and containing approximately 5×10^5 live cells.
The live cell microarray fabricated as described in the previous Example was utilized to measure response of the MCF-7 cell line cells to several apoptosis-inducing compounds, which included etoposide, camptothecin and andrographolide. In addition, the live cell microarray was utilized to measure response of the MCF-7 cells to the same compound (andrographolide) provided in three different concentrations.
Stock solutions of the three compounds listed above were prepared in DMSO and stored at 4° C. or at −20° C. The compounds were diluted with the DMEM cell culture medium to the final concentrations of 1 mM (etoposide), 10 μM (camptothecin) and 100 μM, 500 μM and 1 mM (andrographolide) immediately before use. The original cell growth medium within the individual wells of the silicone gasket was removed by pipetting and replaced with approximately 250 μL of a cell growth medium supplemented with a specific compound. FIG. 39A schematically depicts a layout of the cell microarray. […]
The reacted cell microarray was measured by MALDI TOF MS in the linear mid-mass positive mode as described previously. […]

For a further series, the system named is MCF-7 cells. Kind of series: Difference whole cell mass spectrometry for detection of spectral changes due to apoptosis. The series is classed as cell-based, human. The following applies: 24 hrs incubation, FIG. 35. The protocol:
The human breast cancer cell line MCF-7 cells were grown in Gibco® DMEM medium on a 6-well clear polystyrene cell culture plate (BD Falcon). The cells were grown according to the manufacturer's protocol to approximately 75% confluency. At this point several apoptosis-inducing compounds were added to the individual wells and the cells were further incubated for 24 hrs. Both live adherent cells and dead cells detached from the surface were collected from the individual wells of the cell culture plate and the cell viability count was performed on Countless® automated cell counter (Life Technologies) per manufacturer's protocol.
The cells for WCMS analysis were prepared as described in the previous examples. The cell concentration was approximately 1,000 cells per μL.
Whole cell MALDI TOF MS spectra were acquired from the control (untreated) and treated cell populations using instrument parameters described in the previous examples. […] The bottom spectrum represents a difference mass spectrum produced by subtracting the control spectrum from the Etoposide-treated spectrum.

The test system of series [2] is MCF-7 cell line cells. Kind of series: Optical imaging of cell density and morphology on composite microbead-microwell live cell microarray. The format is cell-based, human. The note with it: MCF-7 cells, 24 hours, optical microscope, FIG. 41A/41B. From the text:
In this Example, the release of etoposide from the beads into the cell culture medium occurred primarily via diffusion mechanism, although other methods, such as photorelease of active compounds from individual beads may be also utilized due to the fact that the solid support used for the microarray fabrication is sufficiently transparent in the UV-visible range.
Optical imaging: the multi-well gasket was separated from the microwell array plate, the surface of the plate rinsed with 1×PBS buffer and the microwell plate was imaged using an optical microscope to determine the cell density and cell morphology. A representative image acquired from an area of the microwell plate, which contained the cells exposed to the drug-free DMEM medium, is shown in FIG. 41A. A representative image acquired from an area of the microwell plate, which contained the cells exposed to the etoposide-containing DMEM medium, is shown in FIG. 41B.

In series [3] the test system is MCF-7 cell line cells. Briefly: Cell counting (Trypan blue, automated cell counter) on composite microbead-microwell live cell microarray. The following applies: MCF-7 cells, 24 hours, cell growth medium supplemented with etoposide released from the ion exchange beads; Trypan blue.
Test in series [4]: as above
The note with it: human, MCF-7 cells on a microbead-microwell array plate.

As a reminder, the viability is the share of living cells, or the viability signal relative to a control.

The structures appear in SMILES notation.

For the compound `C=C1CC[C@@H]2[C@](C)(CO)[C@H](O)CC[C@@]2(C)[C@@H]1C/C=C1/C(=O)OC[C@H]1O` [andrographolide], the “intensity of peaks in the 7,891-7,977 m/z spectral region compared to untreated cells” value (shortened to “intensity of peaks … compared to untreated cells”) with MCF-7 cell line cells [1] is given as “significantly greater intensity”.

`CC[C@@]1(O)C(=O)OCc2c1cc1n(c2=O)Cc2cc3ccccc3nc2-1` [camptothecin]: in the series with MCF-7 cell line cells [1], the “intensity of peaks … compared to untreated cells” value was “significantly greater intensity”.

Turning to `COc1cc([C@@H]2c3cc4c(cc3[C@@H](O[C@@H]3O[C@@H]5CO[C@@H](C)O[C@H]5[C@H](O)[C@H]3O)[C@H]3COC(=O)[C@H]23)OCO4)cc(OC)c1O` [etoposide], the “intensity of peaks … compared to untreated cells” value with MCF-7 cell line cells [1] is “significantly greater intensity”. Also, the “difference mass spectrum, treated minus control” value in the series with MCF-7 cells is recorded as “reveals multiple spectral features”. For the same compound, the “density of adherent cells, drug-free vs etoposide-containing DMEM medium” value in the series with MCF-7 cell line cells [2] is “significantly greater density of adherent cells was observed for the cells grown in the drug-free medium”. In the series on MCF-7 cell line cells [3], the live cells is 2.1×10^5 and the total cells was 4.7×10^5. The viability at 24 h in series [4] came to 44%.
